Measurements as given in the kinase profiling compilation of Christmann-Franck et al. (2016).

Columns and labels:
Test in all cases: radiometric filter-binding kinase assay, Kinase HotSpot
Conditions in all cases: compound 0.5 µM; ATP 10 µM
RAF1 (human) = RAF1 (human) (UniProt P04049)
INSRR (human) = INSRR (human) (UniProt P14616)
MERTK (human) = MERTK (human) (UniProt Q12866)
RET (human) = RET (human) (UniProt P07949)
CAMK4 (human) = CAMK4 (human) (UniProt Q16566)
EPHA2 (human) = EPHA2 (human) (UniProt P29317)
CAMKK1 (human) = CAMKK1 (human) (UniProt Q8N5S9)
MAPK1 (human) = MAPK1 (human) (UniProt P28482)
INSR (human) = INSR (human) (UniProt P06213)
ROCK1 (human) = ROCK1 (human) (UniProt Q13464)
NUAK2 (human) = NUAK2 (human) (UniProt Q9H093)
MAPKAPK2 (human) = MAPKAPK2 (human) (UniProt P49137)
HIPK1 (human) = HIPK1 (human) (UniProt Q86Z02)
FGFR2 (human) = FGFR2 (human) (UniProt P21802)
Sequence of FGFR2 (human) (P21802 whole entry, looked up): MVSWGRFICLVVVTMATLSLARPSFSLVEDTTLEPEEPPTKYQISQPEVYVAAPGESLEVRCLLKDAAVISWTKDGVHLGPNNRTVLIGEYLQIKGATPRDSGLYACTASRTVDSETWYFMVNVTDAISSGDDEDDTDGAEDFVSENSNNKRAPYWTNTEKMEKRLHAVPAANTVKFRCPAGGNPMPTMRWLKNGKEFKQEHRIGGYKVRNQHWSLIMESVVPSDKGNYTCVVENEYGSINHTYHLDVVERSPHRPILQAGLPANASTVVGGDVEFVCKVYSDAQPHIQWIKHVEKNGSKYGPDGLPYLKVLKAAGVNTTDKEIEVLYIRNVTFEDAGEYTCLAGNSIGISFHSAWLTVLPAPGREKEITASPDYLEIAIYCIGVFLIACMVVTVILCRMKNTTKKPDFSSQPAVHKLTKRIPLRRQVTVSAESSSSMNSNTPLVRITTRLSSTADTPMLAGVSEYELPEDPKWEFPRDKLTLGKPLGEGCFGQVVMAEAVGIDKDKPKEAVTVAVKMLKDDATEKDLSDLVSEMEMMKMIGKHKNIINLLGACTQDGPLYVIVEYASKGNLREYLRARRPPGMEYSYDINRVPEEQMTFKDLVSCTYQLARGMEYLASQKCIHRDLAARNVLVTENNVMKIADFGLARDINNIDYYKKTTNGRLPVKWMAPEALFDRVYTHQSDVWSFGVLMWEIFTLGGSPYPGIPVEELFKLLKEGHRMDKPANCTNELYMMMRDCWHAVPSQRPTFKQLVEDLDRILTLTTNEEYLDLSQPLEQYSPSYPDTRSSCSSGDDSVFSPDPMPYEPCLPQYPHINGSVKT

MKNK2 (human) = MKNK2 (human) (UniProt Q9HBH9)
Sequence of MKNK2 (human) (Q9HBH9 whole entry, looked up): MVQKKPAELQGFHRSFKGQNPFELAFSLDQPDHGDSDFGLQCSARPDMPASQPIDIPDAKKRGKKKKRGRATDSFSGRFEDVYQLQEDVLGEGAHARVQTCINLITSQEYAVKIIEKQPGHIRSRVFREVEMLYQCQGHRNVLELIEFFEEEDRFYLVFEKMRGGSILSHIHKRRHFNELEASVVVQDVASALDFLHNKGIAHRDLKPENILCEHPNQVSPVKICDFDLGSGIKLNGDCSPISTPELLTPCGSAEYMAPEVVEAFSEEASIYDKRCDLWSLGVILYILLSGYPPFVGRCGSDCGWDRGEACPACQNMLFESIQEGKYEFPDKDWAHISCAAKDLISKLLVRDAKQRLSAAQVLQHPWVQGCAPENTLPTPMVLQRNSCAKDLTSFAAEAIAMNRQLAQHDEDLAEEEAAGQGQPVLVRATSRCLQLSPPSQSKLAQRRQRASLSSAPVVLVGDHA

EPHA3 (human) = EPHA3 (human) (UniProt P29320)
Sequence of EPHA3 (human) (P29320 whole entry, looked up): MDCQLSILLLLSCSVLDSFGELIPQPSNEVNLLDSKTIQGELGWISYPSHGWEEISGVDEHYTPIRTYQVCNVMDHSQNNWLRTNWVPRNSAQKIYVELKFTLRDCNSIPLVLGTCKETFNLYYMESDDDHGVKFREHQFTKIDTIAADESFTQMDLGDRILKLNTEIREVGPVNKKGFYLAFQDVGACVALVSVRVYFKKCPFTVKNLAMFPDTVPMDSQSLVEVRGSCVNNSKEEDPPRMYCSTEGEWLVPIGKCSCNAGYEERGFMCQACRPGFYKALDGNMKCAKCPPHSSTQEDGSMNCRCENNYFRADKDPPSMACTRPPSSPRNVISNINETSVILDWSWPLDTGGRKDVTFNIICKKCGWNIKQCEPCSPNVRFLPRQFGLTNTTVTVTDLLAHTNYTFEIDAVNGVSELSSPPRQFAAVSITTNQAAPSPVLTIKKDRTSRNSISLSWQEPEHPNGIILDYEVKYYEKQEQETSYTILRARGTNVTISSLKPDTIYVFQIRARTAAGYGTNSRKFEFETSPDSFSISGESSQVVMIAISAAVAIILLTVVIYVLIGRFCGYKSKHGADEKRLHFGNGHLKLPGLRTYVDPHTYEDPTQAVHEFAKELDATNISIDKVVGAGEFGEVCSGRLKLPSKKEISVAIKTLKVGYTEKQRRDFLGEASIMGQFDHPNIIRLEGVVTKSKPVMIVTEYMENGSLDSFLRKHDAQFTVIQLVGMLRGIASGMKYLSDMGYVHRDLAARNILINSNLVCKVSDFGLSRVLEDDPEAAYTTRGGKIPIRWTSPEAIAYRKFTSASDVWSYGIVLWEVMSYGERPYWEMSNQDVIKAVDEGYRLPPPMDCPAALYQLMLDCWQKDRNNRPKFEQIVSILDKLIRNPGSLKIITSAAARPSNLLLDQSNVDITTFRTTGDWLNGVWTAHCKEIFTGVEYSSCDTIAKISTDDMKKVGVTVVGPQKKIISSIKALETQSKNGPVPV

PAK4 (human) = PAK4 (human) (UniProt O96013)
Sequence of PAK4 (human) (O96013 whole entry, looked up): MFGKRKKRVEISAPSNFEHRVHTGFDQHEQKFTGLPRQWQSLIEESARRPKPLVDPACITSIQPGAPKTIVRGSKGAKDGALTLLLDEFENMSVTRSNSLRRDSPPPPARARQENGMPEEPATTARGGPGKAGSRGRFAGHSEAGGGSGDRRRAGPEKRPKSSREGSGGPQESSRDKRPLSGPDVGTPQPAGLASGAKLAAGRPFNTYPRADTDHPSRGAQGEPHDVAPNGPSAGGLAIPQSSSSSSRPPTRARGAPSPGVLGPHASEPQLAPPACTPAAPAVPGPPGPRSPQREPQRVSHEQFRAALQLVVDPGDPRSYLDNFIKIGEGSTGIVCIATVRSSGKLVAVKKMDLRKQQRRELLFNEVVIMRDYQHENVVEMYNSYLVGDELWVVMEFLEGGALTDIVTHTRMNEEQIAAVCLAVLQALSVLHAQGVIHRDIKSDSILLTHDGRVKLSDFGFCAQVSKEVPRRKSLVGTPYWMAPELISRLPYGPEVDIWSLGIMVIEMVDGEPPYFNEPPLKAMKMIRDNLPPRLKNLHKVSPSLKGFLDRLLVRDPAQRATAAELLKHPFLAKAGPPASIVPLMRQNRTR

PIM3 (human) = PIM3 (human) (UniProt Q86V86)
SRPK2 (human) = SRPK2 (human) (UniProt P78362)
Sequence of SRPK2 (human) (P78362 whole entry, looked up): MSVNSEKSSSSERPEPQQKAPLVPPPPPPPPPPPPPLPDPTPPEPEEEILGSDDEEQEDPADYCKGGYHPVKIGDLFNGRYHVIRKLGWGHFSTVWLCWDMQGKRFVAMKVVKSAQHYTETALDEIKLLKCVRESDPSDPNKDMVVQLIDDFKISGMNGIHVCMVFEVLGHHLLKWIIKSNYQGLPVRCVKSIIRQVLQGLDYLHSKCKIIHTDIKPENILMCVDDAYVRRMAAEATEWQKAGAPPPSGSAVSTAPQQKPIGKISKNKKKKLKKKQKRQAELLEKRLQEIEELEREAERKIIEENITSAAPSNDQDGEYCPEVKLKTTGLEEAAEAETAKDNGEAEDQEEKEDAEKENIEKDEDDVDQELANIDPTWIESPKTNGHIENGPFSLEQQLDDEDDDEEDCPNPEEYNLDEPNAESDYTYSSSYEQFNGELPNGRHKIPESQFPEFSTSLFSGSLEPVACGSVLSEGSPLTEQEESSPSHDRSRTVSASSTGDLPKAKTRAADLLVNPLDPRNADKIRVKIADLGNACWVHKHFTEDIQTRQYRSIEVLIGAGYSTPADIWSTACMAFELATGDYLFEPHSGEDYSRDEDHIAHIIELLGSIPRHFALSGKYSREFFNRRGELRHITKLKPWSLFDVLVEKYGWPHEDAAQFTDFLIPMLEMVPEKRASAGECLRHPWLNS

PRKCG (human) = PRKCG (human) (UniProt P05129)
GRK4 (human) = GRK4 (human) (UniProt P32298)
CAMK2A (human) = CAMK2A (human) (UniProt Q9UQM7)
NEK2 (human) = NEK2 (human) (UniProt P51955)
TAOK3 (human) = TAOK3 (human) (UniProt Q9H2K8)
SGK3 (human) = SGK3 (human) (UniProt Q96BR1)
EPHA8 (human) = EPHA8 (human) (UniProt P29322)
PAK1 (human) = PAK1 (human) (UniProt Q13153)
MYLK2 (human) = MYLK2 (human) (UniProt Q9H1R3)
ULK2 (human) = ULK2 (human) (UniProt Q8IYT8)
Sequence of ULK2 (human) (Q8IYT8 whole entry, looked up): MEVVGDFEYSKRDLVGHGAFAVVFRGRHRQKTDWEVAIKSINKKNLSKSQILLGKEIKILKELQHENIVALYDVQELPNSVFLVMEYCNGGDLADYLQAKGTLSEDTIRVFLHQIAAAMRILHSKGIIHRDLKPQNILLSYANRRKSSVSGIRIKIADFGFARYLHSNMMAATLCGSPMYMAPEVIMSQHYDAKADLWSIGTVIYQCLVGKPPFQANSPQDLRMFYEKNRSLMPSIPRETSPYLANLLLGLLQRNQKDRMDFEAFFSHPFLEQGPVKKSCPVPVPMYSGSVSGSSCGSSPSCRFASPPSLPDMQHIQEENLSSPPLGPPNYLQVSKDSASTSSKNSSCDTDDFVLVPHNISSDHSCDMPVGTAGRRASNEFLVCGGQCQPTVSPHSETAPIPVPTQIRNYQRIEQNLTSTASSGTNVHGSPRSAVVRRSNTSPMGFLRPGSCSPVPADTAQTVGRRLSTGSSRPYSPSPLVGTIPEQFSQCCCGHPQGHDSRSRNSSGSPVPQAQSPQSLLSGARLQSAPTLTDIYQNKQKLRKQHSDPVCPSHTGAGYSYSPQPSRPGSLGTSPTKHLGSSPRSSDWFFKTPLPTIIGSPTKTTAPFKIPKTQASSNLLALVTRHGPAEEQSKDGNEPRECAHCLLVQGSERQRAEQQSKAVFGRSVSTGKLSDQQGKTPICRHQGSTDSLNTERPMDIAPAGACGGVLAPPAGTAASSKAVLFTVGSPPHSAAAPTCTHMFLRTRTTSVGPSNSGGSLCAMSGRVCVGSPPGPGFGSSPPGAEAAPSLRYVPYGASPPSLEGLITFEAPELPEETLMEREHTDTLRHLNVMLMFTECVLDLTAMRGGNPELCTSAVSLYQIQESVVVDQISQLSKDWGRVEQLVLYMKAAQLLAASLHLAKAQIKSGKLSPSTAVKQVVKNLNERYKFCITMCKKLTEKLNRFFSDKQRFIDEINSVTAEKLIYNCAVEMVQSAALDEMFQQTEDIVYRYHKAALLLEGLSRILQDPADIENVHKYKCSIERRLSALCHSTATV

PAK2 (human) = PAK2 (human) (UniProt Q13177)
TTK (human) = TTK (human) (UniProt P33981)
RPS6KA1 KD1 KD2 (human) = RPS6KA1 KD1 KD2 (human) (UniProt Q15418)
MARK2 (human) = MARK2 (human) (UniProt Q7KZI7)
STK17A (human) = STK17A (human) (UniProt Q9UEE5)
CSNK2A1 (human) = CSNK2A1 (human) (UniProt P68400)
NEK9 (human) = NEK9 (human) (UniProt Q8TD19)
PTK6 (human) = PTK6 (human) (UniProt Q13882)
Sequence of PTK6 (human) (Q13882 whole entry, looked up): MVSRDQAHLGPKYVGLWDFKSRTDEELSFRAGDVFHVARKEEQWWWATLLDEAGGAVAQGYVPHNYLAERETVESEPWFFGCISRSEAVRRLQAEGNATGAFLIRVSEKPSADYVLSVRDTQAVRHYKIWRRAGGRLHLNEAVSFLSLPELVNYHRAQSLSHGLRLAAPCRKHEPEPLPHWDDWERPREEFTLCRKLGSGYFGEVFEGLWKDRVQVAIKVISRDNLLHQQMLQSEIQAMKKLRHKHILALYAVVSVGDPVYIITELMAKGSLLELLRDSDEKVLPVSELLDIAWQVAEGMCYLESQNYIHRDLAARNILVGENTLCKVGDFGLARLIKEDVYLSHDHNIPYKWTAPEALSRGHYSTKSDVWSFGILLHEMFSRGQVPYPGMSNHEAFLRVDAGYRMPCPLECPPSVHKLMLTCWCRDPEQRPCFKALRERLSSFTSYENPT

MYLK (human) = MYLK (human) (UniProt Q15746)
CDK1 CCNB1 (human) = CDK1 CCNB1 (human) (UniProt P06493+P14635)
DYRK3 (human) = DYRK3 (human) (UniProt O43781)
NLK (human) = NLK (human) (UniProt Q9UBE8)
ADRBK2 (human) = ADRBK2 (human) (UniProt P35626)

Cn1nc2c3c(cccc31)C(=O)c1ccccc1-2
residual activity (RAF1 (human)): 87%
residual activity (INSRR (human)): 82.7%
residual activity (MERTK (human)): 95.9%
residual activity (RET (human)): 83.8%
residual activity (CAMK4 (human)): 100%
residual activity (EPHA2 (human)): 104%
residual activity (CAMKK1 (human)): 102%
residual activity (MAPK1 (human)): 91.7%
residual activity (INSR (human)): 99.5%
residual activity (ROCK1 (human)): 98.4%
residual activity (NUAK2 (human)): 85.7%
residual activity (MAPKAPK2 (human)): 102%
residual activity (HIPK1 (human)): 112%
residual activity (FGFR2 (human)): 105%
residual activity (MKNK2 (human)): 94.1%
residual activity (EPHA3 (human)): 93.5%
residual activity (PAK4 (human)): 90.4%
residual activity (PIM3 (human)): 76.8%
residual activity (SRPK2 (human)): 97.2%
residual activity (PRKCG (human)): 90.6%
residual activity (GRK4 (human)): 105%
residual activity (CAMK2A (human)): 106%
residual activity (NEK2 (human)): 88.2%
residual activity (TAOK3 (human)): 87.6%
residual activity (SGK3 (human)): 107%
residual activity (EPHA8 (human)): 99.4%
residual activity (PAK1 (human)): 98.5%
residual activity (MYLK2 (human)): 78.8%
residual activity (ULK2 (human)): 109%
residual activity (PAK2 (human)): 102%
residual activity (TTK (human)): 77.7%
residual activity (RPS6KA1 KD1 KD2 (human)): 93.7%
residual activity (MARK2 (human)): 94.1%
residual activity (STK17A (human)): 83.7%
residual activity (CSNK2A1 (human)): 90.2%
residual activity (NEK9 (human)): 96.6%
residual activity (PTK6 (human)): 91.8%
residual activity (MYLK (human)): 77.4%
residual activity (CDK1 CCNB1 (human)): 108%
residual activity (DYRK3 (human)): 129%
residual activity (NLK (human)): 100%
residual activity (ADRBK2 (human)): 93.6%

CCN(CC)CCCCN1c2ccccc2Oc2ccc(Cl)cc21
residual activity (RAF1 (human)): 105%
residual activity (INSRR (human)): 102%
residual activity (MERTK (human)): 95.5%
residual activity (RET (human)): 96.3%
residual activity (CAMK4 (human)): 98.9%
residual activity (EPHA2 (human)): 106%
residual activity (CAMKK1 (human)): 116%
residual activity (MAPK1 (human)): 84.7%
residual activity (INSR (human)): 109%
residual activity (ROCK1 (human)): 92.6%
residual activity (NUAK2 (human)): 90.9%
residual activity (MAPKAPK2 (human)): 97.2%
residual activity (HIPK1 (human)): 106%
residual activity (FGFR2 (human)): 95.7%
residual activity (MKNK2 (human)): 111%
residual activity (EPHA3 (human)): 101%
residual activity (PAK4 (human)): 104%
residual activity (PIM3 (human)): 37.8%
residual activity (SRPK2 (human)): 109%
residual activity (PRKCG (human)): 91.1%
residual activity (GRK4 (human)): 102%
residual activity (CAMK2A (human)): 104%
residual activity (NEK2 (human)): 101%
residual activity (TAOK3 (human)): 110%
residual activity (SGK3 (human)): 101%
residual activity (EPHA8 (human)): 102%
residual activity (PAK1 (human)): 87.7%
residual activity (MYLK2 (human)): 104%
residual activity (ULK2 (human)): 103%
residual activity (PAK2 (human)): 98.6%
residual activity (TTK (human)): 104%
residual activity (RPS6KA1 KD1 KD2 (human)): 97.5%
residual activity (MARK2 (human)): 86.1%
residual activity (STK17A (human)): 96.1%
residual activity (CSNK2A1 (human)): 96.2%
residual activity (NEK9 (human)): 98.8%
residual activity (PTK6 (human)): 95%
residual activity (MYLK (human)): 97%
residual activity (CDK1 CCNB1 (human)): 96.8%
residual activity (DYRK3 (human)): 99%
residual activity (NLK (human)): 101%
residual activity (ADRBK2 (human)): 87.5%

COc1cc2ncnc(N3CCN(C(=O)Nc4ccc(Oc5ccccc5)cc4)CC3)c2cc1OC
residual activity (RAF1 (human)): 88%
residual activity (INSRR (human)): 96.8%
residual activity (MERTK (human)): 60%
residual activity (RET (human)): 104%
residual activity (CAMK4 (human)): 102%
residual activity (EPHA2 (human)): 95.7%
residual activity (CAMKK1 (human)): 92.9%
residual activity (MAPK1 (human)): 83.9%
residual activity (INSR (human)): 98.2%
residual activity (ROCK1 (human)): 86%
residual activity (NUAK2 (human)): 77.4%
residual activity (MAPKAPK2 (human)): 102%
residual activity (HIPK1 (human)): 96.9%
residual activity (FGFR2 (human)): 92.4%
residual activity (MKNK2 (human)): 94.2%
residual activity (EPHA3 (human)): 93.7%
residual activity (PAK4 (human)): 101%
residual activity (PIM3 (human)): 94.4%
residual activity (SRPK2 (human)): 89.1%
residual activity (PRKCG (human)): 104%
residual activity (GRK4 (human)): 94.7%
residual activity (CAMK2A (human)): 89.9%
residual activity (NEK2 (human)): 81.3%
residual activity (TAOK3 (human)): 95.3%
residual activity (SGK3 (human)): 97.6%
residual activity (EPHA8 (human)): 92.5%
residual activity (PAK1 (human)): 91.8%
residual activity (MYLK2 (human)): 94.6%
residual activity (ULK2 (human)): 102%
residual activity (PAK2 (human)): 104%
residual activity (TTK (human)): 98.3%
residual activity (RPS6KA1 KD1 KD2 (human)): 82%
residual activity (MARK2 (human)): 97.4%
residual activity (STK17A (human)): 85.5%
residual activity (CSNK2A1 (human)): 96.2%
residual activity (NEK9 (human)): 103%
residual activity (PTK6 (human)): 95.2%
residual activity (MYLK (human)): 101%
residual activity (CDK1 CCNB1 (human)): 105%
residual activity (DYRK3 (human)): 86.3%
residual activity (NLK (human)): 99.9%
residual activity (ADRBK2 (human)): 106%
